Source: PubChem BioAssay (NCI)
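How tested: cells in 96-well plates exposed to compound for 48 hours at five concentrations. GI50 marks 50% less growth. TGI denotes the concentration required for complete inhibition of growth.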

Legend:
Assay in all cases: NCI-60 cell line screen, 48 h
SK-MEL-5 melanoma = tested on: SK-MEL-5 melanoma
K-562 leukemia = tested on: K-562 leukemia
SF-295 CNS = tested on: SF-295 CNS
A549 NSCLC = tested on: A549 NSCLC
XF 498 CNS = tested on: XF 498 CNS
HOP-18 NSCLC = tested on: HOP-18 NSCLC
SF-268 CNS = tested on: SF-268 CNS
MALME-3M melanoma = tested on: MALME-3M melanoma
SW-620 colon = tested on: SW-620 colon
786-0 renal = tested on: 786-0 renal

SMILES | TGI (SK-MEL-5 melanoma) [µM] | TGI (K-562 leukemia) [µM] | TGI (SF-295 CNS) [µM] | TGI (A549 NSCLC) [µM] | TGI (XF 498 CNS) [µM] | TGI (HOP-18 NSCLC) [µM] | TGI (SF-268 CNS) [µM] | TGI (MALME-3M melanoma) [µM] | TGI (SW-620 colon) [µM] | TGI (786-0 renal) [µM] | GI50 (MALME-3M melanoma) [µM] | GI50 (SK-MEL-5 melanoma) [µM] | GI50 (K-562 leukemia) [µM] | GI50 (SF-295 CNS) [µM] | GI50 (A549 NSCLC) [µM] | GI50 (SW-620 colon) [µM] | GI50 (XF 498 CNS) [µM] | GI50 (HOP-18 NSCLC) [µM] | GI50 (SF-268 CNS) [µM]
C=C1CC(OC)(C(O)C(=O)N[C@H]2OCO[C@H]3C2O[C@H](C[C@H](O)COC)C(C)(C)C3OC)O[C@H](C)[C@@H]1C (some centres undefined) | > 0.00772 | > 0.00772 | > 0.00772 | > 0.00772 | > 0.00772 | > 0.00772 | > 0.00772 | – | – | – | – | – | – | – | – | – | – | – | –
CC(=O)Nc1ccc(/C=C(\NC(=O)c2ccccc2)C(=O)NNS(=O)(=O)c2ccc(C)cc2)cc1 | > 100 | > 100 | > 100 | > 100 | > 100 | > 100 | > 100 | > 100 | – | – | – | – | – | – | – | – | – | – | –
CCOC(=O)C[n+]1ccc2c([nH]c3cc(OC)ccc32)c1C | > 100 | > 100 | > 100 | > 100 | > 100 | > 100 | > 100 | > 100 | > 100 | – | – | – | – | – | – | – | – | – | –
O=C1OC2C=CC1C1(CCOC1=O)C2 (centres undefined) | > 100 | > 100 | – | > 100 | > 100 | > 100 | > 100 | > 100 | > 100 | > 100 | – | – | – | – | – | – | – | – | –
NC1CCCCC1N.O=S(=O)([O-])CCCN1CCN(CCO)CC1.O=S(=O)([O-])CCCN1CCN(CCO)CC1.[Pt+4] | 17.2 | 44.8 | > 100 | > 100 | 24.6 | > 100 | > 78 | 28.3 | 21 | – | 3.08 | 2.57 | 4.81 | 4.1 | 4.7 | 2.29 | 1.25 | 21.6 | 3.72
CC(=O)O[C@H]1C(=O)[C@@]2(C)C(C(OC(=O)c3ccccc3)[C@]3(O)CC(OC(=O)C(O)C(NC(=O)c4ccccc4)c4ccc(C)cc4)C(C)=C1C3(C)C)[C@]1(OC(C)=O)CO[C@@H]1C[C@@H]2O (some centres undefined) | – | > 25 | – | 21.5 | 0.134 | 23.6 | > 25 | 10.4 | 0.0256 | 6.68 | – | – | – | – | – | – | – | – | –
